Measurements published in patent US7064122B2, “Pancreatic lipase inhibitor compounds, their synthesis and use” (OSI Pharmaceuticals, Inc., priority 2001, dated 2006).

molecular target: T1, type VI-S porcine pancreatic lipase (Sus scrofa, UniProt P00591); assay: Pancreatic lipase assay (pH-stat titration, triolein substrate); type: biochemical; set-up: Ymax: unit not given here; settings: 7.0 nM lipase, 700 nM inhibitor, pH 8.0; Ymax of the fit Y=Ymax*(1-exp(-k*X))
T1 construct: purchased Sigma type VI-S (catalogue number not given)
T1 sequence (P00591 1-450): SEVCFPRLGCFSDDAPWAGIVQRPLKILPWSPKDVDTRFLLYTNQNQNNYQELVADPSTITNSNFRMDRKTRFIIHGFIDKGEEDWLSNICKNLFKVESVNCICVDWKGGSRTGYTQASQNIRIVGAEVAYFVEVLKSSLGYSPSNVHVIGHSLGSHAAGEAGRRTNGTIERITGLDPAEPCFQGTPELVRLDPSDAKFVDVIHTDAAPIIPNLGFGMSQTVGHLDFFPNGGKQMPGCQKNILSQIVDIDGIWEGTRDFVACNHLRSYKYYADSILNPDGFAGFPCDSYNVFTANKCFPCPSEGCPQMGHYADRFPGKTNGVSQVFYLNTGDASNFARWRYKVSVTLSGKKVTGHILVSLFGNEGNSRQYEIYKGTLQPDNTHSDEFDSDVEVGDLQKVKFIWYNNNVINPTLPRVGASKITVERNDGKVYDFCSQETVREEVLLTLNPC
Procedure: The use of a pancreatic lipase assay has been described in the literature (Hadvary, P. et al. Biochem. J. (1988) 256: 357-361; Hadvary, P. et al. Biochem. J. (1991) 266:2021-2027). Pancreatic lipase activity was measured using a 718 Stat Titrino (Brinkmann) programmed to maintain a pH of 8.0 using 0.1 N NaOH. The substrate mixture (pH 8) contained 1 mM taurochenodeoxycholate (Sigma), 9 mM taurodeoxycholate (Sigma), 0.1 mM cholesterol (Sigma), 1 mM phosphatidylcholine (Sigma), 1.5% BSA, 2 mM Tris base, 100 mM NaCl, 10 mM CaCl2, and 3% triolein (Sigma). The mixture (5 mL) was emulsified via sonication at room temperature, and added to the titration vessel with rapid stirring. The Stat Titrino was turned on and lipase (7.0 nM type VI-S porcine pancreatic lipase (Sigma) dissolved in PBS) was added to the vessel. After 10 min, inhibitor (700 nM dissolved in 100% DMSO) was added and the reaction continued for an additional 12.5 min. The k values were determined for the 12.5 min after the addition of the inhibitor using a one phase exponential association equation, Y=Ymax*(1−exp(−k*X)), k values for lipase alone were 0.0004±0.0001 sec. The k values for compounds disclosed herein are >0.0004±0.0001 sec.

Ymax	Molecule
0.616	CCCCCCCCNc1nc2sc(C(=O)N(CCCC)CCCC)c(C)c2c(=O)o1 [Entry 36, 5-Methyl-2-octylamino-4-oxo-4H-thieno[2,3-d][1,3]oxazine-6-carboxylic acid dibutylamide]
0.045	CCCCCCCCNc1nc2sc(C(=O)NC3CCCCC3)c(C)c2c(=O)o1 [Entry 38, 5-Methyl-2-octylamino-4-oxo-4H-thieno[2,3-d][1,3]oxazine-6-carboxylic acid cyclohexylamide]

same assay, conditions: 7.0 nM lipase, 700 nM inhibitor, pH 8.0; k fitted for the 12.5 min after inhibitor addition, Y=Ymax*(1-exp(-k*X))

k	Molecule
0.779 10-3.s-1	2-Hexadecyloxy-5-methyl-4-oxo-4H-thieno[2,3-d][1,3]oxazine-6-carboxylic acid benzyl ester [Entry 7]
0.649 10-3.s-1	CCCCCCCCOc1nc2sc(C(=O)OCc3ccccc3)c(C)c2c(=O)o1 [Entry 5, 5-Methyl-2-octyloxy-4-oxo-4H-thieno[2,3-d][1,3]oxazine-6-carboxylic acid benzyl ester]
1.052 10-3.s-1	CCCCCCCOc1nc2sc(C(=O)OCc3ccccc3)c(C)c2c(=O)o1 [Entry 8, 2-Heptyloxy-5-methyl-4-oxo-4H-thieno[2,3-d][1,3]oxazine-6-carboxylic acid benzyl ester]
1.349 10-3.s-1	CCCCCCCOC(=O)c1sc2nc(OCCCCCCC)oc(=O)c2c1C [Entry 10, 5-Methyl-2-heptyloxy-4-oxo-4H-thieno[2,3-][1,3]oxazine-6-carboxylic acid heptyl ester]
0.547 10-3.s-1	CCCCCCCCOc1nc2sc(C(=O)O)c(C)c2c(=O)o1 [Entry 11, 5-Methyl-2-octyloxy-4-oxo-4H-thieno[2,3-d][1,3]oxazine-6-carboxylic acid]
0.414 10-3.s-1	CCCCCCCCNC(=O)N(CCCCCCCC)c1nc2sc(C(=O)OCc3ccccc3)c(C)c2c(=O)o1 [Entry 13, 2-(1,3-Dioctyl-ureido)-5-methyl-4-oxo-4H-thieno[2,3-d][1,3]oxazine-6-carboxylic acid benzyl ester]
0.459 10-3.s-1	CCCCCCCNC(=O)N(CCCCCCC)c1nc2sc(C(=O)OCc3ccccc3)c(C)c2c(=O)o1 [Entry 14, 2-(1,3-Diheptyl-ureido)-5-methyl-4-oxo-4H-thieno[2,3-d][1,3]oxazine-6-carboxylic acid benzyl ester]
1.548 10-3.s-1	CCCCCCCCNC(=O)c1sc2nc(OCCCCCCCC)oc(=O)c2c1C [Entry 15, 5-Methyl-2-octyloxy-4-oxo-4H-thieno[2,3-d][1,3]oxazine-6-carboxylic acid octylamide]
7.74 10-3.s-1	CCCCCCCNc1nc2sc(C(=O)OCc3ccccc3)c(C)c2c(=O)o1 [Entry 17, 2-Heptylamino-5-methyl-4-oxo-4H-thieno[2,3-d][1,3]oxazine-6-carboxylic acid benzyl ester]
0.981 10-3.s-1	CCCCCCCCOC(=O)c1sc2nc(Nc3ccc(Oc4ccccc4)cc3)oc(=O)c2c1C [Entry 19, 5-Methyl-4-oxo-2-(4-phenoxy-phenylamino)-4H-thieno[2,3-d][1,3]oxazine-6-carboxylic acid octyl ester]
0.922 10-3.s-1	CCCCCCCCNc1nc2sc(C(=O)OCCCCCCCC)c(C)c2c(=O)o1 [Entry 20, 5-Methyl-2-octylamino-4-oxo-4H-thieno[2,3-d][1,3]oxazine-6-carboxylic acid octyl ester]
1.079 10-3.s-1	CCCCCCCCNc1nc2sc(C(=O)NCc3ccccc3)c(C)c2c(=O)o1 [Entry 21, 5-Methyl-2-octylamino-4-oxo-4H-thieno[2,3-d][1,3]oxazine-6-carboxylic acid benzylamide]
0.537 10-3.s-1	CCCCCCCCNc1nc2sc(C(=O)N(C)C)c(C)c2c(=O)o1 [Entry 22, 5-Methyl-2-octylamino-4-oxo-4H-thieno[2,3-d][1,3]oxazine-6-carboxylic acid dimethylamide]
0.893 10-3.s-1	CCCCCCCCOc1nc2scc(C)c2c(=O)o1 [Entry 23, 5-Methyl-2-octyloxy-thieno[2,3-d][1,3]oxazin-4-one]
2.577 10-3.s-1	CCCCCCCCNc1nc2sc(C(=O)NCCCCCC)c(C)c2c(=O)o1 [Entry 27, 5-Methyl-2-octylamino-4-oxo-4H-thieno[2,3-d][1,3]oxazine-6-carboxylic acid hexylamide]
0.998 10-3.s-1	CCCCCCCCCCNC(=O)c1sc2nc(NCCCCCCCC)oc(=O)c2c1C [Entry 28, 5-Methyl-2-octylamino-4-oxo-4H-thieno[2,3-d][1,3]oxazine-6-carboxylic acid decylamide]
0.797 10-3.s-1	CCCCCCCCCCCCNC(=O)c1sc2nc(NCCCCCCCC)oc(=O)c2c1C [Entry 29, 5-Methyl-2-octylamino-4-oxo-4H-thieno[2,3-d][1,3]oxazine-6-carboxylic acid dodecylamide]
0.433 10-3.s-1	CCCCCCCCCCCCCCCCNC(=O)c1sc2nc(NCCCCCCCC)oc(=O)c2c1C [Entry 30, 5-Methyl-2-octylamino-4-oxo-4H-thieno[2,3-d][1,3]oxazine-6-carboxylic acid hexadecylamide]
2.447 10-3.s-1	CCCCCCCCNc1nc2sc(C(=O)NCCCC)c(C)c2c(=O)o1 [Entry 32, 5-Methyl-2-octylamino-4-oxo-4H-thieno[2,3-d][1,3]oxazine-6-carboxylic acid butylamide]
0.547 10-3.s-1	CCCCCCCCNc1nc2sc(C(=O)NCC)c(C)c2c(=O)o1 [Entry 33, 5-Methyl-2-octylamino-4-oxo-4H-thieno[2,3-d][1,3]oxazine-6-carboxylic acid ethylamide]
0.864 10-3.s-1	CCCCCCCCNc1nc2sc(C(=O)NCc3ccccn3)c(C)c2c(=O)o1 [Entry 34, 5-Methyl-2-octylamino-4-oxo-4H-thieno[2,3-d][1,3]oxazine-6-carboxylic acid (pyridin-2-ylmethyl)amide]
0.146 10-3.s-1	CCCCCCCCNc1nc2sc(C(=O)N(CCCC)CCCC)c(C)c2c(=O)o1 [Entry 36, 5-Methyl-2-octylamino-4-oxo-4H-thieno[2,3-d][1,3]oxazine-6-carboxylic acid dibutylamide]
2.173 10-3.s-1	CCCCCCCCNc1nc2sc(C(=O)NC3CCCCC3)c(C)c2c(=O)o1 [Entry 38, 5-Methyl-2-octylamino-4-oxo-4H-thieno[2,3-d][1,3]oxazine-6-carboxylic acid cyclohexylamide]
0.110 10-3.s-1	CCCCCCCCNc1nc2sc(C(=O)N3CCN(Cc4ccccc4)CC3)c(C)c2c(=O)o1 [Entry 40, 6-(4-Benzyl-piperazine-1-carbonyl)-5-methyl-2-octylamino-thieno[2,3-d][1,3]oxazin-4-one]
1.667 10-3.s-1	CCCCCCCCNc1nc2sc(C(=O)NCCCOc3ccccc3)c(C)c2c(=O)o1 [Entry 44, 5-Methyl-2-octylamino-4-oxo-4H-thieno[2,3-d][1,3]oxazine-6-carboxylic acid (3-phenoxy-propyl)-amide]
0.770 10-3.s-1	CCCCCCCCNc1nc2sc(C(=O)NC(CCCC)CCCC)c(C)c2c(=O)o1 [Entry 45, 5-Methyl-2-octylamino-4-oxo-4H-thieno[2,3-d][1,3]oxazine-6-carboxylic acid (1-butyl-pentyl)-amide]
0.062 10-3.s-1	CCCCCCCCNc1nc2sc(C(=O)NCCCN(C)C)c(C)c2c(=O)o1 [Entry 46]
0.022 10-3.s-1	CCCCCCCCNc1nc2sc(C(=O)N(C)Cc3cccc(C)n3)c(C)c2c(=O)o1 [Entry 49, 5-Methyl-2-octylamino-4-oxo-4H-thieno[2,3-d][1,3]oxazine-6-carboxylic acid methyl-(6-methyl-pyridin-2-ylmethyl)-amide]
0.719 10-3.s-1	CCCCCCCCNc1nc2sc(C(=O)NCCc3cccnc3)c(C)c2c(=O)o1 [Entry 50, 5-Methyl-2-octylamino-4-oxo-4H-thieno[2,3-d][1,3]oxazine-6-carboxylic acid (2-pyridin-3-yl-ethyl)-amide]
